“And” between values parts separate entries of the source, which are not always exact repeats. Equal values may be shown once. Blank lines part the entries; values can stand above or below the molecule they belong to. Where no end group is shown, it is not given here. [ ]: non-standard residue; d: D form. pT = C[C@@H](OP(=O)(O)O)[C@H](N)C(=O)O
Tests used:
MSK1 = MSK1 (Homo sapiens, UniProt O75582); test: Kinase panel assay, MSK1; type: biochemical; details: 1 μM inhibitor, 0.1 mM ATP, average of triplicate
Sequence of MSK1 (O75582 whole entry): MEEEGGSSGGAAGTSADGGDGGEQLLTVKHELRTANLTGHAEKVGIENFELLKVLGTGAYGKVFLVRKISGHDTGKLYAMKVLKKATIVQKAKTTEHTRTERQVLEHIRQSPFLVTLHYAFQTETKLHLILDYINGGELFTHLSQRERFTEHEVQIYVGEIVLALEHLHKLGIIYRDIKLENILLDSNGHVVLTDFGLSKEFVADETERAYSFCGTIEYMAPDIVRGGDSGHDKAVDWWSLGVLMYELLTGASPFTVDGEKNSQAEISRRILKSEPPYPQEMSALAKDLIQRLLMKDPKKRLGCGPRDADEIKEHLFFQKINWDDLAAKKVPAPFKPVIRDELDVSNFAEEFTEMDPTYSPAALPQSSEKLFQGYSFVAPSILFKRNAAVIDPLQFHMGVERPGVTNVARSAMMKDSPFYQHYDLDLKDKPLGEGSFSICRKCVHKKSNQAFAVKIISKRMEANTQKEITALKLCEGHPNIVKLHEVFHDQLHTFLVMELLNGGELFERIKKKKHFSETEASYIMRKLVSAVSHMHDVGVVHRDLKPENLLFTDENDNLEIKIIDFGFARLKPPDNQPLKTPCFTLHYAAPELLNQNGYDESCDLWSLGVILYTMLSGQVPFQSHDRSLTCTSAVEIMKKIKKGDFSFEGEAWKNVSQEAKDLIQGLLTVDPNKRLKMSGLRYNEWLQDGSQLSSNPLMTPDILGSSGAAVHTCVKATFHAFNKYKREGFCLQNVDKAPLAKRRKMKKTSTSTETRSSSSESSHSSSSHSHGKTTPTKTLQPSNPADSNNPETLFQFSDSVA

Lck = Lck (Homo sapiens, UniProt P06239); test: Kinase panel assay, Lck; type: biochemical; details: 1 μM inhibitor, 0.1 mM ATP, average of triplicate
Sequence of Lck (P06239 whole entry, species assumed): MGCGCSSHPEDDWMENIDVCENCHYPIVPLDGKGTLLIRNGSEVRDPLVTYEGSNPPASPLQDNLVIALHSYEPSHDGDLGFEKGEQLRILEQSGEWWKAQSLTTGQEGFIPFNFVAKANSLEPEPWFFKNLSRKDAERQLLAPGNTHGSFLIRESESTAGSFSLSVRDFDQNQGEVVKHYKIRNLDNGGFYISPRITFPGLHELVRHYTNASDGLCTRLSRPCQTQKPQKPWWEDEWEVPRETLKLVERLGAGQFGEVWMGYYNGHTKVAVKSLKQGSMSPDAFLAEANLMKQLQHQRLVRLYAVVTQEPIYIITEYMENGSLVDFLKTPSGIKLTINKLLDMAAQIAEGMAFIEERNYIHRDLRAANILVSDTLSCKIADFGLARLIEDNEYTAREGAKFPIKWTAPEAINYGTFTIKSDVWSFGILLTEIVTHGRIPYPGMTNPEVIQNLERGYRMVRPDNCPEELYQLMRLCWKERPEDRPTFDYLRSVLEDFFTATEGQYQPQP

SAPK2β/p38β2 = SAPK2β/p38β2 (Homo sapiens, UniProt Q15759); test: Kinase panel assay, SAPK2β/p38β2; type: biochemical; details: 1 μM inhibitor, 0.1 mM ATP, average of triplicate
NEK6 = NEK6 (Homo sapiens, UniProt Q9HC98); test: Kinase panel assay, NEK6; type: biochemical; details: 1 μM inhibitor, 0.1 mM ATP, average of triplicate
CSK = CSK (Homo sapiens, UniProt P41240); test: Kinase panel assay, CSK; type: biochemical; details: 1 μM inhibitor, 0.1 mM ATP, average of triplicate
GSK3β = GSK3β (Homo sapiens, UniProt P49841); test: Kinase panel assay, GSK3β; type: biochemical; details: 1 μM inhibitor, 0.1 mM ATP, average of triplicate
CK2 = CK2 (Homo sapiens, UniProt P68400); test: Kinase panel assay, CK2; type: biochemical; details: 1 μM inhibitor, 0.1 mM ATP, average of triplicate
ROCK-II = ROCK-II (Homo sapiens, UniProt O75116); test: Kinase panel assay, ROCK-II; type: biochemical; details: 1 μM inhibitor, 0.1 mM ATP, average of triplicate
MAPKAP-K1a = MAPKAP-K1a (Homo sapiens, UniProt Q15418); test: Kinase panel assay, MAPKAP-K1a; type: biochemical; details: 1 μM inhibitor, 0.1 mM ATP, average of triplicate
Sequence of MAPKAP-K1a (Q15418 whole entry, species assumed): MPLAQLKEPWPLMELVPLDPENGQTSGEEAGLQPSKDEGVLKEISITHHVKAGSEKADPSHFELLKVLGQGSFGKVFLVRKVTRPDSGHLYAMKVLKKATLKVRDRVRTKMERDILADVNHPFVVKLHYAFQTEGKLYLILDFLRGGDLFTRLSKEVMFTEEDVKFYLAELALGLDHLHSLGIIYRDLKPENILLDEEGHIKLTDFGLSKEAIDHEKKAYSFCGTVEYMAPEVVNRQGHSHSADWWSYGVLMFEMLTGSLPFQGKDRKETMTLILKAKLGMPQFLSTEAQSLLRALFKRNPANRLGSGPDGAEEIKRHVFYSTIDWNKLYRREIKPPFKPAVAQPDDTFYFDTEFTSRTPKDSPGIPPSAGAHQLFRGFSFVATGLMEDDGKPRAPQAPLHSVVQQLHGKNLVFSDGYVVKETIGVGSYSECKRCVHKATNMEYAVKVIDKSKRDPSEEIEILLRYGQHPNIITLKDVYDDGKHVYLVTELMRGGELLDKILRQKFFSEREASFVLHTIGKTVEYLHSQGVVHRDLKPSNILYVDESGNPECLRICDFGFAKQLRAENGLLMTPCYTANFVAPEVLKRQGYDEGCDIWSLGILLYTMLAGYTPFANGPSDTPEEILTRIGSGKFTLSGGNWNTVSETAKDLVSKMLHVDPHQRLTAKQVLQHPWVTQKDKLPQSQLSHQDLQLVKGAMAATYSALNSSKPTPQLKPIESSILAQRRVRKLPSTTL

SGK1 = SGK1 (Homo sapiens, UniProt O00141); test: Kinase panel assay, SGK1; type: biochemical; details: 1 μM inhibitor, 0.1 mM ATP, average of triplicate
Sequence of SGK1 (O00141 whole entry): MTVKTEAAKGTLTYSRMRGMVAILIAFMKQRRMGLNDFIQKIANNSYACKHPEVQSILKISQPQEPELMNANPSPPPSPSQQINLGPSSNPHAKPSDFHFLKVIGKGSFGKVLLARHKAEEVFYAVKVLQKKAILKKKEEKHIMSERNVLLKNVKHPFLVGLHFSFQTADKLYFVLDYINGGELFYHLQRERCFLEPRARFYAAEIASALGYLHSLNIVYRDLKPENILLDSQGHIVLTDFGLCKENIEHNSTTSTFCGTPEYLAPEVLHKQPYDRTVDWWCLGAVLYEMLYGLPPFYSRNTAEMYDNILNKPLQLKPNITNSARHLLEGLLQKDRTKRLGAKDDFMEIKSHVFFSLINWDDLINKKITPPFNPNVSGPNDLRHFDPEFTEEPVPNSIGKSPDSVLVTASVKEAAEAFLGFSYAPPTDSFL

AMPK = test: Kinase panel assay, AMPK; type: biochemical; details: 1 μM inhibitor, 0.1 mM ATP, average of triplicate
Procedure: (§1) Other protein kinases employed in Table 5, were assayed as described previously.

PKA = PKA (Homo sapiens, UniProt P17612); test: Kinase panel assay, PKA; type: biochemical; details: 1 μM inhibitor, 0.1 mM ATP, average of triplicate
MAPKAP-K2 = MAPKAP-K2 (Homo sapiens, UniProt P49137); test: Kinase panel assay, MAPKAP-K2; type: biochemical; details: 1 μM inhibitor, 0.1 mM ATP, average of triplicate
CK1 = test: Kinase panel assay, CK1; type: biochemical; details: 1 μM inhibitor, 0.1 mM ATP, average of triplicate
PRAK = PRAK (Homo sapiens, UniProt Q8IW41); test: Kinase panel assay, PRAK; type: biochemical; details: 1 μM inhibitor, 0.1 mM ATP, average of triplicate
Sequence of PRAK (Q8IW41 whole entry, species assumed): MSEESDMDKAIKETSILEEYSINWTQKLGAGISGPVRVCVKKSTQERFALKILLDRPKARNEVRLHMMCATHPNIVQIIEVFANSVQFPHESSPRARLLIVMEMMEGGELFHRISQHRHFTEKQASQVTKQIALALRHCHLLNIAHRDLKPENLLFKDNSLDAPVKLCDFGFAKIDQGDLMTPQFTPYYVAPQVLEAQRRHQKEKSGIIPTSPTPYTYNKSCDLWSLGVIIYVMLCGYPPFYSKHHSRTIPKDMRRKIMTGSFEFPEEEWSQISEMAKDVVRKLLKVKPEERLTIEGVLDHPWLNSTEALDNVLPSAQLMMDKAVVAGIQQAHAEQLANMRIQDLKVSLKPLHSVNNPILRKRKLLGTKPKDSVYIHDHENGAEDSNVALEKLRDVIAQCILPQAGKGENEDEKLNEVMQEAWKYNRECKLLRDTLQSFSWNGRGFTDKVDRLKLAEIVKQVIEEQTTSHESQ

CHK1 [1] = target: T1, CHK1 (Homo sapiens, UniProt O14757); test: Kinase panel assay, CHK1; type: biochemical; details: 1 μM inhibitor, 0.1 mM ATP, average of triplicate
T1 sequence (O14757 1-476): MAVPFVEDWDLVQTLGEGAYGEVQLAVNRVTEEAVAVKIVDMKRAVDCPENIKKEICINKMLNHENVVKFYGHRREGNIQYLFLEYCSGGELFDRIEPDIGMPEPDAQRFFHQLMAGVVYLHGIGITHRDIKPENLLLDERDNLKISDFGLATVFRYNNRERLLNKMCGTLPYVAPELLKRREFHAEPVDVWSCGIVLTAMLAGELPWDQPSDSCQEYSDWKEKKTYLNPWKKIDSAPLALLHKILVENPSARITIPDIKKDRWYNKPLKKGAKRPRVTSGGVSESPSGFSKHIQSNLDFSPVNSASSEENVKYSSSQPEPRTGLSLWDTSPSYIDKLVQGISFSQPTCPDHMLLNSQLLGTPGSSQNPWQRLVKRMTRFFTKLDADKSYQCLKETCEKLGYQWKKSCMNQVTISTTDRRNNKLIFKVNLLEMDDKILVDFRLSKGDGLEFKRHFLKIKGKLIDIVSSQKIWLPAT

PHOS.KINASE = PHOS.KINASE (Oryctolagus cuniculus, UniProt P00518); test: Kinase panel assay, phosphorylase kinase; type: biochemical; details: 1 μM inhibitor, 0.1 mM ATP, average of triplicate
JNKSAPK1c = JNKSAPK1c (Homo sapiens, UniProt P45983); test: Kinase panel assay, JNKSAPK1c; type: biochemical; details: 1 μM inhibitor, 0.1 mM ATP, average of triplicate
DYRK1α = DYRK1α (Homo sapiens, UniProt Q13627); test: Kinase panel assay, DYRK1α; type: biochemical; details: 1 μM inhibitor, 0.1 mM ATP, average of triplicate
SAPK2α/p38 = SAPK2α/p38 (Homo sapiens, UniProt Q16539); test: Kinase panel assay, SAPK2α/p38; type: biochemical; details: 1 μM inhibitor, 0.1 mM ATP, average of triplicate
Sequence of SAPK2α/p38 (Q16539 whole entry): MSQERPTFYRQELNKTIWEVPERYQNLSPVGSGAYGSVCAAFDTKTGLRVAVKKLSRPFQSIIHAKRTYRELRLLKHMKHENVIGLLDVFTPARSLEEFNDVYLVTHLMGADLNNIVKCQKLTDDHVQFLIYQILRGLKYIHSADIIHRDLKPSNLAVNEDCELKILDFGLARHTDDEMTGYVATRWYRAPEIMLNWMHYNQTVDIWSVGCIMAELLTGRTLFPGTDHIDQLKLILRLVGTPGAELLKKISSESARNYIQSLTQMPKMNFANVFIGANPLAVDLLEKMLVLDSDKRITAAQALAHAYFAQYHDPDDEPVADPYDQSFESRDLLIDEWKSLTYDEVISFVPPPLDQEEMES

SAPK4/p38δ = SAPK4/p38δ (Homo sapiens, UniProt O15264); test: Kinase panel assay, SAPK4/p38δ; type: biochemical; details: 1 μM inhibitor, 0.1 mM ATP, average of triplicate
Sequence of SAPK4/p38δ (O15264 whole entry): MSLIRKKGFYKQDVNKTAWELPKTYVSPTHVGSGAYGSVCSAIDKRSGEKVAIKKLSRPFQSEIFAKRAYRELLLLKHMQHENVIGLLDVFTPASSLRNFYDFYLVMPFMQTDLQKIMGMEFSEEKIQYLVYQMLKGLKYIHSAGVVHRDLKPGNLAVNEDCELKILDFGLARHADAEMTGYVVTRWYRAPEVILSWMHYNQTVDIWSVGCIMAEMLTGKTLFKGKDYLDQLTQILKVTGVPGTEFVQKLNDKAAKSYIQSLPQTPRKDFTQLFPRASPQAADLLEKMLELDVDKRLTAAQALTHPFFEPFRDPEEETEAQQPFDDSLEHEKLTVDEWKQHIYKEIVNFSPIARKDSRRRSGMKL

PKBΔPH = PKBΔPH (Homo sapiens, UniProt P31749); test: biochemical; details: read-out: percentage of kinase activity compared to control incubations, PKBΔPH
Procedure: as §1

PDK1 [2] = target: T2, PDK1 (Homo sapiens, UniProt O15530); details: literature [21]; cited from earlier work
T2 sequence (O15530 1-556): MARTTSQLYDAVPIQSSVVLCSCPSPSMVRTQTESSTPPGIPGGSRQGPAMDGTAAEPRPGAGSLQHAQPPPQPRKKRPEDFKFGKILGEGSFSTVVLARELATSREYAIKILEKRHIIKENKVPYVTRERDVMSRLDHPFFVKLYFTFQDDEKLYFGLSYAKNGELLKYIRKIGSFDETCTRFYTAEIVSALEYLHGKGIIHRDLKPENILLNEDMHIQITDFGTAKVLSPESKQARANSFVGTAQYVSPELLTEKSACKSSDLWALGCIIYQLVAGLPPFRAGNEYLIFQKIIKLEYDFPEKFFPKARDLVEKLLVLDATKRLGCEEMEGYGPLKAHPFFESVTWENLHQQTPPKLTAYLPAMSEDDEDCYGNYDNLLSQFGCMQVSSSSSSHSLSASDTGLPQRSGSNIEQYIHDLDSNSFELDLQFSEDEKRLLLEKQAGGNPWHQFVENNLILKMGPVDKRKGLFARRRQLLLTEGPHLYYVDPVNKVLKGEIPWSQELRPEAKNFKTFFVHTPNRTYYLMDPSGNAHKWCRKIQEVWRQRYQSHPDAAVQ

S6K1 = S6K1 (Homo sapiens, UniProt P23443); test: Kinase panel assay, S6K1; type: biochemical; details: 1 μM inhibitor, 0.1 mM ATP, average of triplicate
MKK1 = MKK1 (Homo sapiens, UniProt Q02750); test: Kinase panel assay, MKK1; type: biochemical; details: 1 μM inhibitor, 0.1 mM ATP, average of triplicate
Sequence of MKK1 (Q02750 whole entry, species assumed): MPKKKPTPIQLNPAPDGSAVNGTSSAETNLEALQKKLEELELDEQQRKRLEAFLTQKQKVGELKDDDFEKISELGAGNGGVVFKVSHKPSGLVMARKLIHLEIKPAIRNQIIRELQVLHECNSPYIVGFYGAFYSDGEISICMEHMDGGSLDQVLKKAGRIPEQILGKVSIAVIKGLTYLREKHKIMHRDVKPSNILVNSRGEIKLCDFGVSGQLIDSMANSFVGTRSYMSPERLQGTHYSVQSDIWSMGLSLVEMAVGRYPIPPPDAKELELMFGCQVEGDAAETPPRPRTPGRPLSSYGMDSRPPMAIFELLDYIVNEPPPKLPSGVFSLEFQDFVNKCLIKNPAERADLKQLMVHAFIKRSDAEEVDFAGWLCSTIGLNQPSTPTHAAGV

PDK1 [3] = target: T2, PDK1; test: PDK1 protein kinase assay with PDK1tide substrate and [γ-32P]ATP; type: biochemical; details: 1 μM inhibitor, 0.1 mM ATP, average of triplicate
Procedure: as §1
A structure-based sequence alignment of known kinase structures was obtained from, which was used to validate the sequence-based sequence alignment (Table 5).

PKCα = PKCα (Homo sapiens, UniProt P17252); test: Kinase panel assay, PKCα; type: biochemical; details: 1 μM inhibitor, 0.1 mM ATP, average of triplicate
CHK1 [4] = target: T1, CHK1; details: literature [20]; cited from earlier work
[5] = target: S6K-pHM, phosphopeptide comprising the hydrophobic motif of S6K1; test: SPR (BiaCore), maximal response obtained empirically
[6] = target: S6K-pHM, phosphopeptide comprising the hydrophobic motif of S6K1; test: SPR (BiaCore), rounded value
[7] = target: S6K-pHM, phosphopeptide comprising the hydrophobic motif of S6K1; test: SPR (BiaCore), against wild type PDK1
[8] = target: S6K-pHM, phosphopeptide comprising the hydrophobic motif of S6K1; test: SPR (BiaCore 3000), biotinylated S6K-pHM on SA chip, GST-PDK1 injected at 2-2150 nM, steady state, apparent Kd
[9] = target: S6K-pHM, phosphopeptide comprising the hydrophobic motif of S6K1; test: SPR (BiaCore), against PIFtide
[10] = target: S6K-pHM, phosphopeptide comprising the hydrophobic motif of S6K1; test: SPR (BiaCore), dissociation phase
[11] = target: GST-PDK1[Q150A] (human), O15530; test: cell-based or functional assay
[12] = target: GST-PDK1[K76A] (human), O15530; test: cell-based or functional assay
[13] = target: T3, wild type PDK1 fused through its N-terminus to glutathione S-transferase (GST-PDK1) (human, UniProt O15530 1-556); test: cell-based or functional assay
T3 sequence: T2 sequence (O15530 1-556)

[14] = target: T3, wild type PDK1 fused through its …; test: SPR (BiaCore), biotinylated peptide on SA chip
Procedure: Binding was analysed in a BiaCore 3000 system (BiaCore AB, Stevenage, UK). […] 30 μl of wild type or the indicated mutant GST-PDK1 were injected at a flow rate of 30 μl/min, in buffer HBS-P (10 mM HEPES pH 7.4, 0.15M NaCl, 0.005% (by vol) polysorbate-20) supplemented with 1 mM DTT. […] Steady state binding was determined at each concentration. Dissociation of PDK1 from the phospho-peptide was monitored over a 1 min period. Regeneration of the sensor chip surface was performed with 10 μl injections of 0.05% SDS.

Molecule: CN[C@@H]1C[C@H]2O[C@@](C)([C@@H]1OC)n1c3ccccc3c3c4c(c5c6ccccc6n2c5c31)C(=O)N[C@H]4O [UCN-01, 7-hydroxyl staurosporine]
percentage of kinase activity compared to control incubations, MSK1 (MSK1): 11% and 11 ± 0%
percentage of kinase activity compared to control incubations, Lck (Lck): 3 ± 1%
percentage of kinase activity compared to control incubations, SAPK2β/p38β2 (SAPK2β/p38β2): 106 ± 4%
percentage of kinase activity compared to control incubations, NEK6 (NEK6): 80 ± 7%
percentage of kinase activity compared to control incubations, CSK (CSK): 58 ± 3%
percentage of kinase activity compared to control incubations, GSK3β (GSK3β): 25 ± 5%
percentage of kinase activity compared to control incubations, CK2 (CK2): 102 ± 11%
percentage of kinase activity compared to control incubations, ROCK-II (ROCK-II): 13 ± 2%
percentage of kinase activity compared to control incubations, MAPKAP-K1a (MAPKAP-K1a): 1 ± 1%
percentage of kinase activity compared to control incubations, SGK1 (SGK1): 25% and 22 ± 4%
percentage of kinase activity compared to control incubations, AMPK (AMPK): 1 ± 1%
percentage of kinase activity compared to control incubations, PKA (PKA): 27 ± 2%
percentage of kinase activity compared to control incubations, MAPKAP-K2 (MAPKAP-K2): 60 ± 1%
percentage of kinase activity compared to control incubations, CK1 (CK1): 96 ± 0%
percentage of kinase activity compared to control incubations, PRAK (PRAK): 89 ± 4%
percentage of kinase activity compared to control incubations, CHK1 (CHK1 [1]): 1 ± 0%
percentage of kinase activity compared to control incubations, PHOS.KINASE (PHOS.KINASE): 1 ± 2%
percentage of kinase activity compared to control incubations, JNKSAPK1c (JNKSAPK1c): 112 ± 6%
percentage of kinase activity compared to control incubations, DYRK1α (DYRK1α): 15 ± 2%
percentage of kinase activity compared to control incubations, SAPK2α/p38 (SAPK2α/p38): 107 ± 5%
percentage of kinase activity compared to control incubations, SAPK4/p38δ (SAPK4/p38δ): 100 ± 7%
remaining activity at 1 µM (PKBΔPH): 9 ± 1%
inhibition of PDK1, recent reports (PDK1 [2]): low nM range
percentage of kinase activity compared to control incubations, S6K1 (S6K1): 21 ± 4%
percentage of kinase activity compared to control incubations, MKK1 (MKK1): 53 ± 1%
percentage of kinase activity compared to control incubations, PDK1 (PDK1 [3]): 0 ± 1%
percentage of kinase activity compared to control incubations, PKCα (PKCα): 1 ± 0%
inhibition of Chk1, recent reports (CHK1 [4]): low nM range

RUmax [5]: 435 RU
Kd [6]: 60 nM
fold higher affinity than wild type PDK1 [7]: 10 fold
Kd [8]: 64 nM
Molecule: GST-PDK1[T148A] (from UniProt O15530 1-556) (enzyme)

fold lower affinity than for PIFtide [9]: 100 fold
Kd [6]: 600 nM
Kd [8]: 642 nM
time taken for 50% dissociation [10]: 30 s
Molecule: wild type PDK1 fused through its N-terminus to glutathione S-transferase (GST-PDK1) (from UniProt O15530 1-556) (enzyme)

activation of PDK1 activity towards T308tide [11]: 2 fold and 3 fold
concentration of S6K-pHM for half maximal activation, against wild type PDK1 (fold higher than wild type PDK1) [12]: 3
maximal activation of PDK1 activity towards T308tide [13]: 5 fold
Molecule: SESANQVFLGF[pT]YVAPSV (not fully specified; printed as SESANQVFLGFT*YVAPSV) [S6K-pHM, phosphopeptide comprising the hydrophobic motif of S6K1]

binding result [14]: no binding (tested: 2-2150 nM)
activation of PDK1 activity towards T308tide [13]: < 2 fold
Molecule: SESANQVFLGFTYVAPSV (also: biotinylated in BiaCore assay, also called 56K-HM) [S6K-HM, non-phosphorylated peptide comprising the hydrophobic motif of S6K1]

From patent US7792665B2, “Method for designing a compound based on the three dimensional structure of phosphoinositide dependent protein kinase 1 (PDK1)” (Medical Research Council, priority 2002, dated 2010)
